Measured values taken from patent publication US8609652B2, “Method of administering a methylene blue-curcumin analog for the treatment of alzheimer's disease” (DePuy Synthes Products, LLC, priority 2009, dated 2013).

Tests used:
beta-amyloid aggregation = conditions: cited from earlier work
[1] = cited from earlier work
rat hippocampal neurons = conditions: cited from earlier work
[2] = cited from earlier work; remark: listed apart in the source
[3] = cited from earlier work; remark: listed apart in the source
[4] = target: plasma membrane binding sites for resveratrol; conditions: rat brain; cited from earlier work
[5] = system: cultured hippocampal cells; conditions: cited from earlier work
PC12 cells, βA (1-42) = conditions: cited from earlier work
PC12 cells, βA (25-35) = conditions: cited from earlier work
PC12 cells = experiment: relative potency versus curcumin in in vitro protection of PC12 cells against beta amyloid insult; format: cell-based
Description: Each of the parent compounds may be obtained by the methods disclosed in Park.
It is further observed that both of these qualities can be placed into the same molecule (35).

AD patients' macrophages = conditions: cited from earlier work
[6] = iontophoresis of 100 mg for 20 minutes; cited from earlier work
tau filaments = conditions: cited from earlier work
[7] = system: neuronal mitochondrial complex IV; conditions: cited from earlier work
[8] = system: rate of cognitive decline; conditions: 19 month period; cited from earlier work
[9] = 10 mg/ml patch, 0.1 mA/cm^2 current density; cited from earlier work

NCCc1ccc(O)c(O)c1 [dopamine]
potency to inhibit beta-amyloid aggregation relative to curcumin (beta-amyloid aggregation): about 10 times

Oc1ccc(C=Cc2cc(O)cc(O)c2)cc1 [resveratrol]
octanol/water partition coefficient log P [1]: about 3.14 | concentration with neuroprotective effect against beta amyloid-induced neurotoxicity (rat hippocampal neurons): 20 µM | solubility in water [2]: < 10 mM | oral bioavailability [3]: about zero | Ki [4]: 102 nM | concentration protecting against nitric oxide related neurotoxicity [5]: 5 to 25 µM

O=C(C=Cc1ccc(O)cc1)CC(=O)C=Cc1ccc(O)cc1 [compound 33, 1,7-bis(4-hydroxyphenyl)-1,6-heptadiene-3,5-dione]
anti-BA (1-42) ED50 (PC12 cells, βA (1-42); Kim): 3.0 ± 0.3 µg/mL | anti-βA (1-42) ED50 (PC12 cells, βA (1-42); Park): 3.5 ± 0.7 µg/mL | anti-BA (25-35) ED50 (PC12 cells, βA (25-35); Kim): 3.5 ± 0.2 µg/mL | anti-βA (25-35) ED50 (PC12 cells, βA (25-35); Park, concentration required to achieve 50% cell viability): 2.0 ± 0.6 µg/mL | fold more potent than curcumin as neuroprotectant against beta amyloid (PC12 cells; analysis of the Kim data): ~2 fold | fold more potent than curcumin as neuroprotectant against beta amyloid (PC12 cells; analysis of the Park data): 3 fold | optimum concentration (AD patients' macrophages): 0.1 µM

O=C(OCCOCCO)c1ccccc1Nc1cccc(C(F)(F)F)c1 [etofenamate]
serum concentration [6]: about 200 ng/ml

CN(C)c1ccc2nc3ccc(=[N+](C)C)cc-3sc2c1 [methylene blue]
formation of tau filaments (tau filaments): inhibits the formation of tau filaments | enhancement of cellular oxygen consumption [7]: 37-70% | increase of neuronal mitochondrial complex IV [7]: 30% | decrease in the rate of cognitive decline as compared to controls [8]: 81%

CC(C)NCC(O)COc1cccc2ccccc12 (centres unmarked) [propranolol]
Cmax serum concentration [9]: about 200 ng/ml
